{"source": "paper PMC8305873", "about": "“Design and heterologous expression of a novel dimeric LL37 variant in Pichia pastoris” (Microbial Cell Factories, 2021)", "key": {"[1]": {"test_system": "S. epidermidis ATCC 12228", "format": "cell-based, Staphylococcus epidermidis", "conditions": "Table 3, recombinant vs synthetic LG; mean ± SD of three independent experiments", "method": "(§1) All experiments were conducted at least three different times."}, "E. coli ATCC 25922 [2]": {"test_system": "E. coli ATCC 25922", "format": "cell-based, Escherichia coli", "method": "as §1\nThe salt ions were added to the BSA solution and configured into different final concentrations of salt ions (150 mM NaCl, 4.5 mM KCl, 6 µM NH4Cl, 8 µM ZnCl2, 1 mM MgCl2, 2 mM CaCl2, and 4 µM FeCl3) solutions. The method discribed as above was referred to determine the MIC value of rLG against E. coli ATCC 25922 in the presence of different concentrations of salt ions."}, "E. coli ATCC 25922 [3]": {"test_system": "E. coli ATCC 25922", "assay": "Transmission electron microscopy (TEM)", "format": "cell-based, Escherichia coli", "conditions": "1/2 × MIC (1 μM), 37 °C 1 h", "method": "E. coli ATCC 25922 was cultured to the logarithmic growth phase and centrifuged to obtain the bacteria. The bacteria were resuspended twice in 0.01 M PBS (pH 7.4) and diluted to OD600 = 0.3. The rLG and bacteria were mixed to a final concentration of 1/2 × MIC (1 μM), and the bacteria without peptide were used as a control. Both samples were incubated at 37 °C for 1 h. The incubated sample was centrifuged at 2500×g for 5 min and washed three times with 0.01 M PBS. Two milliliters of 2.5% glutaraldehyde buffer was added to the bacterial pellet, and the suspension was gently blown and fixed at 4 °C overnight. The cells were washed with 0.01 M PBS and fixed in 1% osmate buffer for 1 h. Then, different concentrations of ethanol were used for gradient dehydration (50%, 70%, 85%, 95% and 100%). Finally, the sample was prepared into ultrathin sections through the process of soaking and embedding, and a Hitachi H-7650 TEM (Hitachi, Japan) was used for observation."}, "P. aeruginosa ATCC 27853": {"test_system": "P. aeruginosa ATCC 27853", "format": "cell-based, Pseudomonas aeruginosa", "conditions": "Table 3, recombinant vs synthetic LG; mean ± SD of three independent experiments", "method": "as §1"}, "human red blood cells": {"test_system": "human red blood cells", "assay": "Hemolytic activity assay", "format": "cell-based", "conditions": "at the highest peptide concentration (128 μM); human red blood cells, 37 °C 1 h; 0.1% Triton X-100 = 100%", "experimental": "The collected blood of type B from healthy donor was centrifuged at 1000×g for 5 min to collect red blood cells. The red blood cells were then washed and resuspended in 10 mM PBS (pH 7.4). Fifty microliters of diluted red blood cells and an equal volume of peptide solution (2–128 µM) were incubated in a 96-well plate at 37 °C for 1 h. The red blood cell suspension treated with 0.1% Triton X-100 was used as a positive control (100% hemolysis), and untreated blood cell suspension was used as a negative control. The 96-well plate was centrifuged at 1000×g for 5 min at 4 °C, and then the supernatant was transferred to a new 96-well plate. The absorbance at OD570 was measured with a microplate reader."}, "E. coli ATCC 25922 [4]": {"test_system": "E. coli ATCC 25922", "assay": "Cytoplasmic membrane depolarization, DiSC3-5", "format": "cell-based, Escherichia coli", "method": "DiSC3-5 was used to measure the change in plasma membrane potential after peptide treatment. E. coli ATCC 25922 (OD600 = 0.05) was incubated with 0.4 µM DiSC3-5 and 100 mM K^+ in 5 mM HEPES buffer (containing 20 mM glucose, pH 7.4) until the fluorescence decreased stably. […] A fluorescence spectrophotometer (Infinite 200 pro, Tecan, China) was used to record the fluorescence values at an excitation light wavelength of 622 nm and emission light wavelength of 670 nm."}, "S. faecalis ATCC 29212": {"test_system": "S. faecalis ATCC 29212", "format": "cell-based, Streptococcus faecalis", "conditions": "Table 3, recombinant vs synthetic LG; mean ± SD of three independent experiments", "method": "as §1"}, "E. coli ATCC 25922 [5]": {"test_system": "E. coli ATCC 25922", "format": "cell-based, Escherichia coli", "conditions": "in the absence of physiological salts and serum"}, "E. coli ATCC 25922 [6]": {"test_system": "E. coli ATCC 25922", "format": "cell-based, Escherichia coli", "conditions": "Table 3, recombinant vs synthetic LG; mean ± SD of three independent experiments", "method": "as §1"}, "E. coli ATCC 078": {"test_system": "E. coli ATCC 078", "format": "cell-based, Escherichia coli", "conditions": "Table 3, recombinant vs synthetic LG; mean ± SD of three independent experiments", "method": "as §1"}, "E. coli ATCC 25922 [7]": {"test_system": "E. coli ATCC 25922", "assay": "Cell wall (outer membrane) permeabilization, NPN uptake", "format": "cell-based, Escherichia coli", "conditions": "at low concentrations (1, 2, and 4 µM); compared with melittin", "method": "The cell wall permeability was determined by monitoring the fluorescence release of the fluorescent dye NPN (Sigma, USA). E. coli ATCC 25922 (OD600 = 0.2) and NPN (10 µM) were incubated in 5 mM HEPES buffer (containing 5 mM glucose, pH 7.4) for 30 min. Then, 100 µL of peptides (0.5–32 µM) and an equal volume of bacteria were added to a 96-well plate. An F-4500 fluorescence spectrophotometer (Hitachi, Japan) was used to detect the fluorescence intensity of different wells at a 350 nm excitation wavelength and 420 nm emission wavelength. The peptide-free and polymyxin B-containing fluorescence values were set as negative and positive controls."}, "[8]": {"test_system": "S. Typhimurium ATCC 14028", "format": "cell-based, Salmonella Typhimurium", "conditions": "Table 3, recombinant vs synthetic LG; mean ± SD of three independent experiments", "method": "as §1"}, "S. Typhimurium C 7731": {"test_system": "S. Typhimurium C 7731", "format": "cell-based, Salmonella Typhimurium", "conditions": "Table 3, recombinant vs synthetic LG; mean ± SD of three independent experiments", "method": "as §1"}, "S. aureus ATCC 29213": {"test_system": "S. aureus ATCC 29213", "format": "cell-based, Staphylococcus aureus", "conditions": "Table 3, recombinant vs synthetic LG; mean ± SD of three independent experiments", "method": "as §1"}, "S. aureus ATCC 25923": {"test_system": "S. aureus ATCC 25923", "format": "cell-based, Staphylococcus aureus", "conditions": "Table 3, recombinant vs synthetic LG; mean ± SD of three independent experiments", "method": "as §1"}}}
{"sequence": "FKRIVQRIKRFLRGGGGSFKRIVQRIKRFLR [rLG, recombinant LG expressed in P. pastoris as 6 × His-SUMO-LG and released by SUMO protease]", "values": [{"measurement": "MIC", "setting": "[1]", "value": "1.89 ± 0.11", "unit": "µM"}, {"measurement": "MIC under physiological salt concentration, FeCl3", "setting": "E. coli ATCC 25922 [2]; 4 µM FeCl3", "value": 2, "unit": "µM"}, {"measurement": "MIC under physiological salt concentration, NH4Cl", "setting": "E. coli ATCC 25922 [2]; 6 µM NH4Cl", "value": 2, "unit": "µM"}, {"measurement": "MIC under physiological salt concentration, ZnCl2", "setting": "E. coli ATCC 25922 [2]; 8 µM ZnCl2", "value": 2, "unit": "µM"}, {"measurement": "MIC under physiological salt concentration, MgCl2", "setting": "E. coli ATCC 25922 [2]; 1 mM MgCl2", "value": 4, "unit": "µM"}, {"measurement": "MIC under physiological salt concentration, CaCl2", "setting": "E. coli ATCC 25922 [2]; 2 mM CaCl2", "value": "> 32", "unit": "µM"}, {"measurement": "MIC under physiological salt concentration, KCl", "setting": "E. coli ATCC 25922 [2]; 4.5 mM KCl", "value": 2, "unit": "µM"}, {"measurement": "MIC under physiological salt concentration, NaCl", "setting": "E. coli ATCC 25922 [2]; 150 mM NaCl", "value": 2, "unit": "µM"}, {"measurement": "MIC under physiological salt concentration, GM", "setting": "E. coli ATCC 25922 [2]; geometric mean of the MIC values in the seven salt solutions", "value": 3.62, "unit": "µM"}, {"measurement": "MIC under physiological salt concentration, Fold", "setting": "E. coli ATCC 25922 [2]; increase of the MIC value (GM in salts) over the control without salts", "value": 1.81}, {"measurement": "internal morphology by TEM", "setting": "E. coli ATCC 25922 [3]", "value": "the membrane of E. coli was destroyed, and the cell contents flowed out"}, {"measurement": "MIC", "setting": "P. aeruginosa ATCC 27853", "value": "4.44 ± 1.78", "unit": "µM"}, {"measurement": "hemolysis (blood cells destroyed)", "setting": "human red blood cells", "value": "approximately 23%"}, {"measurement": "plasma membrane potential (DiSC3-5 fluorescence intensity)", "setting": "E. coli ATCC 25922 [4]; lowest tested concentration (1 µM)", "value": "caused a rapid increase in fluorescence intensity"}, {"measurement": "damage to plasma membrane potential compared with melittin (DiSC3-5)", "setting": "E. coli ATCC 25922 [4]; rLG compared with 16 µM melittin", "value": "stronger than that of 16 µM melittin"}, {"measurement": "MIC", "setting": "S. faecalis ATCC 29212", "value": "1.89 ± 0.11", "unit": "µM"}, {"measurement": "MIC, Control", "setting": "E. coli ATCC 25922 [5]", "value": 2, "unit": "µM"}, {"measurement": "MIC", "setting": "E. coli ATCC 25922 [6]", "value": "1.77 ± 0.19", "unit": "µM"}, {"measurement": "MIC", "setting": "E. coli ATCC 078", "value": "1.22 ± 0.19", "unit": "µM"}, {"measurement": "ability to damage or destroy the bacterial cell wall (NPN fluorescence)", "setting": "E. coli ATCC 25922 [7]", "value": "better than that of melittin"}, {"measurement": "MIC", "setting": "[8]", "value": "3.78 ± 0.44", "unit": "µM"}, {"measurement": "MIC", "setting": "S. Typhimurium C 7731", "value": "1.33 ± 0.25", "unit": "µM"}, {"measurement": "MIC", "setting": "S. aureus ATCC 29213", "value": "2.00 ± 0.00", "unit": "µM"}, {"measurement": "MIC", "setting": "S. aureus ATCC 25923", "value": "4.44 ± 1.78", "unit": "µM"}]}
